# Patent US10167507B2, “Metabolic diseases-related odorant receptor genes and use thereof” (INDUSTRY-ACADEMIC COOPERATION FOUNDATION, YONSEI UNIVERSITY, priority 2010, dated 2019)
# Tests used:
# [1] = test system: CREB (cAMP-responsive element binding protein); test: Western blotting, protein phosphorylation of CREB; type: in vivo, mouse; conditions: for CREB phosphorylation, increase (change rate): odor component-supplemented group to the HFD control group
# Method: (§6) A certain amount of visceral fat or liver tissues in mortar was homogenized with liquid nitrogen and cell lysis buffer. The mixture was transferred to a new tube, followed by vortexing. After centrifugation at 13,000×g for 20 min at 4° C., the middle layer of the tube was obtained and proteins were quantified by Bradford method. 50 μg of protein was electrophorized to SDS polyacrylamide gel, followed by electroblotting to PVDF hyper film. The protein was reacted using an appropriate antibody for the protein and detected by ECL, whereby insulin resistance, adipocyte differentiation, lipid metabolism or energy consumption-related mechanism of phytochemical components was investigated in the protein level.
# (§7) In order to verify this, protein phosphorylations of HSL (hormone sensitive lipase), CREB (cAMP-responsive element binding protein) and AKT (v-akt murine thymoma viral oncogene) were evaluated by western blotting analysis.
# [2] = test system: olfactory receptors in visceral fat and liver tissues; test: OligoDNA microarray, visceral fat and liver tissues of HFD mice fed odor components (tissue not separated in text); type: in vivo; conditions: supplemented to mouse fed high-fat diet for 10 weeks
# Excerpt: (§1) The obesity-inducing control diet used in the test was high-fat diet (HFD: 40% fat calorie, 17 g lard+3% corn oil/100 g diet). Diets supplemented with an odor component had the same composition as HFD, except that each of various types of odor components (indol-3-carbinol, oleuropein, cedryl acetate, α-cedrene and piperine) having anti-obesity efficacy was contained in 0.02-0.05% concentration. Indo)-3-carbinol, oleuropein, cedryl acetate, a-cedrene and piperine were purchased from Sigma-Aldrich.
# (§2) After adding Trizol agent to visceral fat or liver tissue, the mixture was homogenized and centrifuged at 12,000×g for 10 min at 4° C. The supernatant was transferred to a new tube to remove fat layer. Then, 200 μl of chloroform was added to the tube, followed by vortexing. The same procedure was repeated twice and then the supernatant was transferred to a new tube, followed by addition of isopropanol and the supernatant at 1:1 ratio. The mixture was vigorously shaken 10 times and then incubated for 10 min at room temperature, followed by centrifugation at 12,000×g for 10 min at 4° C. to remove the supernatant. After adding 1 mL of 70% ethanol to the remaining pellet, it was centrifuged at 7,500×g for 5 min at 4° C. After removing the ethanol, the RNA pellet contained in the tube was dried for 5 min at 4° C. and dissolved in nuclease-free water. The RNA sample concentration was measured at a wavelength of 260 nm and 280 nm using a UV/VIS spectrophotometer (Beckman coulter, DU730) and the integrity of RNA sample was verified by agarose gel electrophoresis.
# (§3) DNA microarry analysis using RNAs of visceral fat and liver tissue was conducted by GENOCHECK (CO., LTD.). RNA samples were pooled from 10 mice in each experimental group and subjected to microarray experiments in triplicate for the test of reproducibility. NimbleGen Mouse Whole Oligo 12-plex chip used in this experiment was prepared by triplicating 42,576 genes using Mouse Genome Build 8 as database. In NimbleGen mouse Whole Oligo 12-plex chip, 137,090 spots excluded control group gene were spotted by 16 μm×16 μm size in 17.4 mm×13 mm size. 42,576 oligo included […] genes which are known their functions and 5,431 transcripts and EST sequences which are unknown their functions. 10-50 μg of total RNA was added in oligo-dT primer, reverse transcriptase, dNTP, Cy3-dUTP and Cy5-dUTP, and reverse-transcripted according to the kit manufacturer's recommendations. The resultant was purified using cartridge, dried and dissolved in hybridization buffer solution (30 μL). The microarray was placed in hybridization cassette, heated at 95-100° C. for 5 min, mixed independently to each of RNA labeled with Cy3 and Cy5, and hybridized at 45° C. for 18 hrs. The slide was washed twice in solution containing 1×SSC and 0.1% SDS for 5 min, washed in 1×SSC for 5 min and dried to analyze.
# (§4) The profile for olfactory receptors in which the expression was regulated by more than 2-fold change due to intake of odor components at each tissue was shown in Tables 5. As a result, it was determined that various types of odor components having anti-obesity efficacy regulated a plurality of olfactory receptors in peripheral tissues.
# [3] = test system: AKT (v-akt murine thymoma viral oncogene); test: Western blotting, protein phosphorylation of AKT; type: in vivo, mouse; conditions: for AKT phosphorylation, increase (change rate): odor component-supplemented group to the HFD control group
# Method: as §6, §7
# [4] = test system: olfactory receptors in liver tissue; test: OligoDNA microarray, liver tissue of HFD mice fed odor components; type: in vivo, mouse
# Excerpt: as §1, §2, §3, §4
# [5] = test system: olfactory receptors in visceral fat tissue; test: OligoDNA microarray, visceral fat tissue of HFD mice fed odor components; type: in vivo, mouse
# Method: DNA microarry analysis using RNAs of visceral fat and liver tissue was conducted by GENOCHECK (CO., LTD.). RNA samples were pooled from 10 mice in each experimental group and subjected to microarray experiments in triplicate for the test of reproducibility. NimbleGen Mouse Whole Oligo 12-plex chip used in this experiment was prepared by triplicating 42,576 genes using Mouse Genome Build 8 as database. In NimbleGen mouse Whole Oligo 12-plex chip, 137,090 spots excluded control group gene were spotted by 16 μm×16 μm size in 17.4 mm×13 mm size. 42,576 oligo included 137,145 genes which are known their functions and 5,431 transcripts and EST sequences which are unknown their functions. 10-50 μg of total RNA was added in oligo-dT primer, reverse transcriptase, dNTP, Cy3-dUTP and Cy5-dUTP, and reverse-transcripted according to the kit manufacturer's recommendations. The resultant was purified using cartridge, dried and dissolved in hybridization buffer solution (30 μL). The microarray was placed in hybridization cassette, heated at 95-100° C. for 5 min, mixed independently to each of RNA labeled with Cy3 and Cy5, and hybridized at 45° C. for 18 hrs. The slide was washed twice in solution containing 1×SSC and 0.1% SDS for 5 min, washed in 1×SSC for 5 min and dried to analyze.
# [6] = test system: HSL (hormone sensitive lipase); test: Western blotting, protein phosphorylation of HSL; type: in vivo, mouse; conditions: for HSL phosphorylation, increase (change rate): odor component-supplemented group to the HFD control group
# Method: as §6, §7
# [7] = test system: obesity and metabolic diseases-related genes in visceral fat tissue; test: RT-PCR of obesity and metabolic diseases-related genes, visceral fat tissue; type: in vivo, mouse; conditions: odor component-supplemented group to the HFD control group
# Method: (§5) After adding 1 mL of Trizol agent (Invitrogen, USA) per 0.1 g of visceral fat or liver tissues, the mixture was homogenized and centrifuged at 12,000×g for 10 min at 4° C. The supernatant was transferred to a new tube and 200 μl of chloroform was added to the tube, followed by vortexing. The same procedure was repeated twice and then the supernatant was transferred to a new tube, followed by addition of isopropanol and the supernatant at 1:1 ratio. The mixture was vigorously shaken 10 times and then incubated for 10 min at room temperature, followed by centrifugation at 12,000×g for 10 min at 4° C. to remove the supernatant. After adding 1 mL of 70% ethanol to the remaining pellet, it was centrifuged at 7,500×g for 5 min at 4° C. After removing the ethanol, the RNA pellet contained in the tube was dried for 5 min at 4° C. and dissolved in nuclease-free water. The RNA sample concentration was measured at a wavelength of 260 nm and 280 nm using a UV/VIS spectrophotometer (Beckman coulter, DU730) and the integrity of RNA sample was verified by agarose gel electrophoresis. The RNA sample obtained from the visceral fat or liver tissues was trasnscribed using oligo dT primer and reverse transcriptase (GIBCO BRL, Gaithersburg, Md., USA) to synthesize cDNA. The PCR amplification was performed using the cDNA as templates and primers complementary to cDNA [NT] flanking sequence. 1 μl of the amplified products were resolved on agarose gel electrophoresis to verify DNA band.
# [8] = test system: obesity and metabolic diseases-related genes in liver tissue; test: RT-PCR of obesity and metabolic diseases-related genes, liver tissue; type: in vivo, mouse; conditions: odor component-supplemented group to the HFD control group
# Method: as §5
# [9] = western blotting, compared to the HFD control group
# [10] = supplemented to HFD-fed mouse 10 weeks
smiles,measurement,setting,value
OCc1c[nH]c2ccccc12 [indol-3-carbinol],"CREB phosphorylation, increase (change rate)",[1],45% increase
same,phosphorylation of CREB,[1]; [9],significantly increased
same,expression of olfactory receptor 16 decreased,[2],more than 2 fold change
same,expression of olfactory receptor 116 increased,[2],more than 2 fold change
same,expression of olfactory receptor 178 increased,[2],more than 2 fold change
same,expression of olfactory receptor 196 decreased,[2],more than 2 fold change
same,expression of olfactory receptor 259 decreased,[2],more than 2 fold change
same,expression of olfactory receptor 290 increased,[2],more than 2 fold change
same,expression of olfactory receptor 380 increased,[2],more than 2 fold change
same,expression of olfactory receptor 466 decreased,[2],more than 2 fold change
same,expression of olfactory receptor 686 decreased,[2],more than 2 fold change
same,expression of olfactory receptor 909 increased,[2],more than 2 fold change
same,expression of olfactory receptor 972 decreased,[2],more than 2 fold change
same,expression of olfactory receptor 1045 decreased,[2],more than 2 fold change
same,expression of olfactory receptor 1093 decreased,[2],more than 2 fold change
same,expression of olfactory receptor 1153 increased,[2],more than 2 fold change
same,expression of olfactory receptor 1165 decreased,[2],more than 2 fold change
same,expression of olfactory receptor 1216 decreased,[2],more than 2 fold change
same,expression of olfactory receptor 1329 decreased,[2],more than 2 fold change
same,expression of olfactory receptor 1337 decreased,[2],more than 2 fold change
same,expression of olfactory receptor 1462 increased,[2],more than 2 fold change
same,"AKT phosphorylation, increase (change rate)",[3],40% increase
same,phosphorylation of AKT,[3]; [9],significantly increased
same,expression of olfactory receptor 1045,[4],decreased
same,Olfr290 expression fold change to HFD group,[4]; [10],2.11
same,Olfr1045 expression fold change to HFD group,[4]; [10],0.45
same,expression of olfactory receptor 380,[5],increased
same,expression of olfactory receptor 1165,[5],decreased
same,Olfr380 expression fold change to HFD group,[5]; [10],2.2
same,Olfr1165 expression fold change to HFD group,[5]; [10],0.39
same,Olfr1462 expression fold change to HFD group,[5]; [10],2.26
same,"HSL phosphorylation, increase (change rate)",[6],31% increase ^a)
same,phosphorylation of HSL,[6]; [9],significantly increased
same,"C/EBPα gene expression, decrease (change rate)",[7],11% decrease^a)
same,"CPT1 gene expression, increase (change rate)",[7],25% increase^
same,"FAS gene expression, decrease (change rate)",[7],56% decrease
same,"IL-6 gene expression, decrease (change rate)",[7],76% decrease
same,"PGC1α gene expression, increase (change rate)",[7],120% increase ^
same,"PPARγ2 gene expression, decrease (change rate)",[7],20% decrease
same,"SIRT1 gene expression, increase (change rate)",[7],45% increase^
same,"TNFα gene expression, decrease (change rate)",[7],23% decrease
same,"UCP1 gene expression, increase (change rate)",[7],210% increase ^
same,"UCP3 gene expression, increase (change rate)",[7],72% increase^
same,"aP2 gene expression, decrease (change rate)",[7],44% decrease
same,"C/EBPα gene expression, decrease (change rate)",[8],25% decrease
same,"CPT1 gene expression, increase (change rate)",[8],33% increase^
same,"FAS gene expression, decrease (change rate)",[8],27% decrease
same,"IL-6 gene expression, decrease (change rate)",[8],45% decrease
same,"PPARγ2 gene expression, decrease (change rate)",[8],36% decrease
same,"TNFα gene expression, decrease (change rate)",[8],33% decrease
same,"aP2 gene expression, decrease (change rate)",[8],29% decrease
O=C(/C=C/C=C/c1ccc2c(c1)OCO2)N1CCCCC1 [piperine],"CREB phosphorylation, increase (change rate)",[1],29% increase
same,expression of olfactory receptor 38 increased,[2],more than 2 fold change
same,expression of olfactory receptor 77 decreased,[2],more than 2 fold change
same,expression of olfactory receptor 520 increased,[2],more than 2 fold change
same,expression of olfactory receptor 878 increased,[2],more than 2 fold change
same,expression of olfactory receptor 1462 decreased,[2],more than 2 fold change
same,"AKT phosphorylation, increase (change rate)",[3],47% increase
same,Olfr38 expression fold change to HFD group,[4]; [10],3.93
same,Olfr77 expression fold change to HFD group,[4]; [10],0.42
same,Olfr520 expression fold change to HFD group,[4]; [10],2.24
same,Olfr878 expression fold change to HFD group,[4]; [10],5.56
same,Olfr1462 expression fold change to HFD group,[4]; [10],0.49
same,"HSL phosphorylation, increase (change rate)",[6],45% increase
same,"C/EBPα gene expression, decrease (change rate)",[7],35% decrease
same,"CPT1 gene expression, increase (change rate)",[7],75% increase^
same,"FAS gene expression, decrease (change rate)",[7],52% decrease
same,"IL-6 gene expression, decrease (change rate)",[7],83% decrease
same,"PGC1α gene expression, increase (change rate)",[7],324% increase ^
same,"PPARγ2 gene expression, decrease (change rate)",[7],30% decrease
same,"SIRT1 gene expression, increase (change rate)",[7],36% increase^
same,"TNFα gene expression, decrease (change rate)",[7],75% decrease
same,"UCP1 gene expression, increase (change rate)",[7],905% increase ^
same,"UCP3 gene expression, increase (change rate)",[7],75% increase^
same,"aP2 gene expression, decrease (change rate)",[7],60% decrease
same,"C/EBPα gene expression, decrease (change rate)",[8],8% decrease
same,"CPT1 gene expression, increase (change rate)",[8],44% increase^
same,"FAS gene expression, decrease (change rate)",[8],67% decrease
same,"IL-6 gene expression, decrease (change rate)",[8],71% decrease
same,"PPARγ2 gene expression, decrease (change rate)",[8],44% decrease
same,"TNFα gene expression, decrease (change rate)",[8],60% decrease
same,"aP2 gene expression, decrease (change rate)",[8],55% decrease
